Test results: PubChem BioAssay AID1963960 (Molecular Pharmacology Branch, DTP, NCI, 2024)

System: MDA-MB-468 spheroids with HUVEC/MSC, viability
Assay: Anticancer human tumor MDA-MB-468 cell line growth inhibition [PI3K];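 further: spheroids exposed to agents for seven days before readout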;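 on viability, T/C: 100% = DMSO vehicle control viability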
Settings: for IC50: curve of first compound; for viability, T/C: stronger effect = lower value
Outline: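 Tumor cells grown as multi-cell spheroids with HUVEC endothelial cells and MSC fibroblast-like stroma were treated with targeted agents combined with inavolisib, alpelisib, duvelisib or copanlisib. Doses fell in half-log steps from near clinical Cmax, else from 10 microM. Viability was measured.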

[1] = second compound 0.0316 µM, first compound 0.0316 µM
[2] = second compound 0.0316 µM, first compound 0.1 µM
[3] = second compound 0.0316 µM, first compound 0.316 µM
[4] = second compound 0.0316 µM, first compound 1 µM
[5] = second compound 0.0316 µM, first compound 3.16 µM
[6] = second compound 0.0316 µM, first compound 10 µM
[7] = second compound 0.1 µM, first compound 0.0316 µM
[8] = second compound 0.1 µM, first compound 0.1 µM
[9] = second compound 0.1 µM, first compound 0.316 µM
[10] = second compound 0.1 µM, first compound 1 µM
[11] = second compound 0.1 µM, first compound 3.16 µM
[12] = second compound 0.1 µM, first compound 10 µM
[13] = second compound 0.316 µM, first compound 0.0316 µM
[14] = second compound 0.316 µM, first compound 0.1 µM
[15] = second compound 0.316 µM, first compound 0.316 µM
[16] = second compound 0.316 µM, first compound 1 µM
[17] = second compound 0.316 µM, first compound 3.16 µM
[18] = second compound 0.316 µM, first compound 10 µM
[19] = second compound 1 µM, first compound 0.0316 µM
[20] = second compound 1 µM, first compound 0.1 µM
[21] = second compound 1 µM, first compound 0.316 µM
[22] = second compound 1 µM, first compound 1 µM
[23] = second compound 1 µM, first compound 3.16 µM
[24] = second compound 1 µM, first compound 10 µM
[25] = second compound 3.16 µM, first compound 0.0316 µM
[26] = second compound 3.16 µM, first compound 0.1 µM
[27] = second compound 3.16 µM, first compound 0.316 µM
[28] = second compound 3.16 µM, first compound 1 µM
[29] = second compound 3.16 µM, first compound 3.16 µM
[30] = second compound 3.16 µM, first compound 10 µM
[31] = second compound 10 µM, first compound 0.0316 µM
[32] = second compound 10 µM, first compound 0.1 µM
[33] = second compound 10 µM, first compound 0.316 µM
[34] = second compound 10 µM, first compound 1 µM
[35] = second compound 10 µM, first compound 3.16 µM
[36] = second compound 10 µM, first compound 10 µM

Work on C#Cc1c(F)ccc2cc(O)cc(-c3ncc4c(N5CC6CCC(C5)N6)nc(OCC56CCCN5CC(F)C6)nc4c3F)c12 (stereo not drawn) + CC(Nc1ncnc2nc[nH]c12)c1cc2cccc(Cl)c2c(=O)n1-c1ccccc1 yielded an IC50 (second compound 0.0316 µM) greater than 10000 nM, an IC50 (second compound 0.1 µM) greater than 10000 nM and an IC50 (second compound 0.316 µM) greater than 10000 nM. For the same molecule, the IC50 (second compound 1 µM) was greater than 10000 nM, the IC50 (second compound 3.16 µM) was 4950 nM and the IC50 (second compound 10 µM) was less than 31.6 nM. The viability, T/C [1] was 104%, the viability, T/C [2] was 94.7% and the viability, T/C [3] was 92.3%. The viability, T/C [4] was 92.3%, the viability, T/C [5] was 90.5% and the viability, T/C [6] was 62.8%. For the same molecule, the viability, T/C [7] was 96.5%, the viability, T/C [8] was 91.2% and the viability, T/C [9] was 88.6%. It also gave a viability, T/C [10] of 90.4%, a viability, T/C [11] of 81.2% and a viability, T/C [12] of 57.1%. For the same molecule, the viability, T/C [13] was 78.7%, the viability, T/C [14] was 67.7% and the viability, T/C [15] was 70.8%. The viability, T/C [16] was 83.6%, the viability, T/C [17] was 75.2% and the viability, T/C [18] was 54.5%. The viability, T/C [19] was 68%, the viability, T/C [20] was 72.8% and the viability, T/C [21] was 63.7%. The viability, T/C [22] was 70.5%, the viability, T/C [23] was 62% and the viability, T/C [24] was 52.1%. For the same molecule, the viability, T/C [25] was 63.4%, the viability, T/C [26] was 57.5% and the viability, T/C [27] was 55.3%. For the same molecule, the viability, T/C [28] was 60%, the viability, T/C [29] was 54.3% and the viability, T/C [30] was 43%. The viability, T/C [31] was 39.2%, the viability, T/C [32] was 39.8% and the viability, T/C [33] was 35.5%. The viability, T/C [34] was 40.4%, the viability, T/C [35] was 38.6% and the viability, T/C [36] was 28.2%.

Work on CC1(C)CCC(Nc2ncc(C(F)(F)F)c(-c3c[nH]c4c(P(C)(C)=O)c(C#N)ccc34)n2)CN1 (stereo not drawn) + CC(Nc1ncnc2nc[nH]c12)c1cc2cccc(Cl)c2c(=O)n1-c1ccccc1 yielded an IC50 (second compound 0.0316 µM) of less than 31.6 nM, an IC50 (second compound 0.1 µM) of less than 31.6 nM and an IC50 (second compound 0.316 µM) of less than 31.6 nM. For the same molecule, the IC50 (second compound 1 µM) was less than 31.6 nM, the IC50 (second compound 3.16 µM) was less than 31.6 nM and the IC50 (second compound 10 µM) was less than 31.6 nM. It also gave a viability, T/C [1] of 11.2%, a viability, T/C [2] of 8.83% and a viability, T/C [3] of 8.44%. For the same molecule, the viability, T/C [4] was 8.51%, the viability, T/C [5] was 9.51% and the viability, T/C [6] was 1.74%. The viability, T/C [7] was 12.5%, the viability, T/C [8] was 11.6% and the viability, T/C [9] was 8.64%. It also gave a viability, T/C [10] of 8.66%, a viability, T/C [11] of 8.77% and a viability, T/C [12] of 1.45%. For the same molecule, the viability, T/C [13] was 11.2%, the viability, T/C [14] was 11% and the viability, T/C [15] was 9.67%. It also gave a viability, T/C [16] of 8.74%, a viability, T/C [17] of 9.29% and a viability, T/C [18] of 1.74%. It also gave a viability, T/C [19] of 12.8%, a viability, T/C [20] of 10.6% and a viability, T/C [21] of 9.64%. For the same molecule, the viability, T/C [22] was 9.48%, the viability, T/C [23] was 9.76% and the viability, T/C [24] was 1.16%. It also gave a viability, T/C [25] of 11.8%, a viability, T/C [26] of 10.2% and a viability, T/C [27] of 11.1%. The viability, T/C [28] was 9.71%, the viability, T/C [29] was 7.09% and the viability, T/C [30] was 1.3%. For the same molecule, the viability, T/C [31] was 12.6%, the viability, T/C [32] was 10.8% and the viability, T/C [33] was 10%. The viability, T/C [34] was 10%, the viability, T/C [35] was 7.06% and the viability, T/C [36] was 1.03%.

Work on CNC(=O)c1ccc(N2C(=S)N(c3ccc(C#N)c(C(F)(F)F)c3)C(=O)C2(C)C)cc1F + COc1c(OCCCN2CCOCC2)ccc2c3n(c(=NC(=O)c4cnc(N)nc4)nc12)CCN3 yielded an IC50 (second compound 0.00316 µM) greater than 10000 nM, an IC50 (second compound 0.01 µM) greater than 10000 nM and an IC50 (second compound 0.0316 µM) greater than 10000 nM. The IC50 (second compound 0.1 µM) was greater than 10000 nM, the IC50 (second compound 0.316 µM) was less than 31.6 nM and the IC50 (second compound 1 µM) was less than 31.6 nM. It also gave a viability, T/C (second compound 0.00316 µM, first compound 0.0316 µM) of 85.4%, a viability, T/C (second compound 0.00316 µM, first compound 0.1 µM) of 90.6% and a viability, T/C (second compound 0.00316 µM, first compound 0.316 µM) of 88.5%. It also gave a viability, T/C (second compound 0.00316 µM, first compound 1 µM) of 101%, a viability, T/C (second compound 0.00316 µM, first compound 3.16 µM) of 77.4% and a viability, T/C (second compound 0.00316 µM, first compound 10 µM) of 70.8%. The viability, T/C (second compound 0.01 µM, first compound 0.0316 µM) was 81.9%, the viability, T/C (second compound 0.01 µM, first compound 0.1 µM) was 89.8% and the viability, T/C (second compound 0.01 µM, first compound 0.316 µM) was 87.8%. The viability, T/C (second compound 0.01 µM, first compound 1 µM) was 86.2%, the viability, T/C (second compound 0.01 µM, first compound 3.16 µM) was 79.7% and the viability, T/C (second compound 0.01 µM, first compound 10 µM) was 75.6%. The viability, T/C [1] was 82.4%, the viability, T/C [2] was 80.7% and the viability, T/C [3] was 82.8%. The viability, T/C [4] was 80.2%, the viability, T/C [5] was 82.5% and the viability, T/C [6] was 60.7%. For the same molecule, the viability, T/C [7] was 52.7%, the viability, T/C [8] was 54.2% and the viability, T/C [9] was 59.5%. It also gave a viability, T/C [10] of 57%, a viability, T/C [11] of 59.9% and a viability, T/C [12] of 49.2%. For the same molecule, the viability, T/C [13] was 26.4%, the viability, T/C [14] was 27.4% and the viability, T/C [15] was 29.3%. The viability, T/C [16] was 30.1%, the viability, T/C [17] was 29.6% and the viability, T/C [18] was 20.8%. The viability, T/C [19] was 4.39%, the viability, T/C [20] was 4.39% and the viability, T/C [21] was 4.07%. For the same molecule, the viability, T/C [22] was 4.23%, the viability, T/C [23] was 4.41% and the viability, T/C [24] was 2.21%.

Work on Cn1cnc2c(F)c(Nc3ccc(Br)cc3Cl)c(C(=O)NOCCO)cc21 + COc1c(OCCCN2CCOCC2)ccc2c3n(c(=NC(=O)c4cnc(N)nc4)nc12)CCN3 yielded an IC50 (second compound 0.00316 µM) greater than 3000 nM, an IC50 (second compound 0.01 µM) greater than 3000 nM and an IC50 (second compound 0.0316 µM) of 1080 nM. The IC50 (second compound 0.1 µM) was 114 nM, the IC50 (second compound 0.316 µM) was less than 9.49 nM and the IC50 (second compound 1 µM) was less than 9.49 nM. The viability, T/C (second compound 0.00316 µM, first compound 0.00949 µM) was 80.8%, the viability, T/C (second compound 0.00316 µM, first compound 0.03 µM) was 88.8% and the viability, T/C (second compound 0.00316 µM, first compound 0.0949 µM) was 84.4%. The viability, T/C (second compound 0.00316 µM, first compound 0.3 µM) was 78.3%, the viability, T/C (second compound 0.00316 µM, first compound 0.949 µM) was 62.5% and the viability, T/C (second compound 0.00316 µM, first compound 3 µM) was 55.8%. It also gave a viability, T/C (second compound 0.01 µM, first compound 0.00949 µM) of 74.8%, a viability, T/C (second compound 0.01 µM, first compound 0.03 µM) of 76.6% and a viability, T/C (second compound 0.01 µM, first compound 0.0949 µM) of 81.1%. It also gave a viability, T/C (second compound 0.01 µM, first compound 0.3 µM) of 64.9%, a viability, T/C (second compound 0.01 µM, first compound 0.949 µM) of 60.6% and a viability, T/C (second compound 0.01 µM, first compound 3 µM) of 49.3%. It also gave a viability, T/C (second compound 0.0316 µM, first compound 0.00949 µM) of 68%, a viability, T/C (second compound 0.0316 µM, first compound 0.03 µM) of 69.7% and a viability, T/C (second compound 0.0316 µM, first compound 0.0949 µM) of 64.2%. It also gave a viability, T/C (second compound 0.0316 µM, first compound 0.3 µM) of 57.3%, a viability, T/C (second compound 0.0316 µM, first compound 0.949 µM) of 53.8% and a viability, T/C (second compound 0.0316 µM, first compound 3 µM) of 37.3%. For the same molecule, the viability, T/C (second compound 0.1 µM, first compound 0.00949 µM) was 55.2%, the viability, T/C (second compound 0.1 µM, first compound 0.03 µM) was 47.9% and the viability, T/C (second compound 0.1 µM, first compound 0.0949 µM) was 51.2%. For the same molecule, the viability, T/C (second compound 0.1 µM, first compound 0.3 µM) was 46.4%, the viability, T/C (second compound 0.1 µM, first compound 0.949 µM) was 32.1% and the viability, T/C (second compound 0.1 µM, first compound 3 µM) was 15.6%. For the same molecule, the viability, T/C (second compound 0.316 µM, first compound 0.00949 µM) was 26.5%, the viability, T/C (second compound 0.316 µM, first compound 0.03 µM) was 23.4% and the viability, T/C (second compound 0.316 µM, first compound 0.0949 µM) was 18.5%. The viability, T/C (second compound 0.316 µM, first compound 0.3 µM) was 16.4%, the viability, T/C (second compound 0.316 µM, first compound 0.949 µM) was 11.8% and the viability, T/C (second compound 0.316 µM, first compound 3 µM) was 4.57%. The viability, T/C (second compound 1 µM, first compound 0.00949 µM) was 2.75%, the viability, T/C (second compound 1 µM, first compound 0.03 µM) was 2.53% and the viability, T/C (second compound 1 µM, first compound 0.0949 µM) was 1.74%. The viability, T/C (second compound 1 µM, first compound 0.3 µM) was 1.38%, the viability, T/C (second compound 1 µM, first compound 0.949 µM) was 1.4% and the viability, T/C (second compound 1 µM, first compound 3 µM) was 0.51%.
